Measurements reported in US20110071201A1, “PHENOL-CONTAINING AZOLE COMPOSITIONS FOR THE PROTECTION OF INDUSTRIAL MATERIALS” (LANXESS DEUTSCHLAND GMBH, priority 2009, published 2011).

Assays:
Coriolus versicolor = assay: Agar hyphae growth inhibition test (MIC) with Kull synergism index; type: cell-based; details: Trametes versicolor, 168 h; malt extract/peptone nutrient agar, 26° C., about 1 week; concentration at which radial hyphae growth was suppressed completely; read-out: MIC value against Coriolus versicolor
Experimental: Mycelium pieces were punched out of a colony of the wood-destroying organism Coriolus versicolor and incubated on a malt extract/peptone-containing nutrient agar at 26° C. The growth of the hyphae with and without active compound and 6,6′-di-tert-butyl-2,2′-methylenedi-p-cresol was compared. The minimum inhibitory concentration (MIC) stated was the concentration at which the radial hyphae growth was suppressed completely (incubation time: about 1 week, independently of the fungal growth of the comparative sample without active compound).
The synergism was determined by the method described by Kull et al. (F. C. Kull, P. C. Eismann, H. D. Sylvestrowicz, R. L. Mayer, Applied Microbiology 1961, 9, 538-541). The following relationships apply:
SI=1 means additivity SI>1 means antagonism SI<1 means synergism Qa=concentration of substance A which is the MIC Qb=concentration of substance B which is the MIC QA=concentration of substance A in the concentration of A/B at which microbial growth is suppressed QB=concentration of substance B in the concentration of A/B at which microbial growth is suppressed

[1] = Solubility in water and vapour pressure; type: physicochemical
Lentinus tigrinus = assay: Agar hyphae growth inhibition test (MIC) with Kull synergism index; type: cell-based; details: 168 h, malt extract/peptone nutrient agar, 26° C., about 1 week, concentration at which radial hyphae growth was suppressed completely, read-out: MIC value against Lentinus tigrinus

solubility in water [1] | vapour pressure ([1]; at 50° C.) | Compound | MIC (Coriolus versicolor) | MIC (Lentinus tigrinus)
< 1 ppm | 0.0001 hPa | Cc1cc(Cc2cc(C)cc(C(C)(C)C)c2O)c(O)c(C(C)(C)C)c1 [phenol I, 6,6′-di-tert-butyl-2,2′-methylenedi-p-cresol] | > 30 µg/mL | 
 |  | CC(C)(C)C(O)(CCc1ccc(Cl)cc1)Cn1cncn1 (centres unmarked) [tebuconazole, reference compound] | 1 µg/mL | 0.3 µg/mL
